Source: patent publication US20230096028A1, “BICYCLIC HETEROCYCLYL COMPOUNDS AND USES THEREOF” (Revolution Medicines, Inc., priority 2019, published 2023)
pIC50: −log10 of the molar value. Read-outs that look alike come from different tables or passages of the source.

Legend:
[1] = system: PC-9 cells (EGFR Ex19Del); assay: Potency Assay: pERK (SOS1 pERK IC50 Assay, AlphaLISA SureFire Ultra p-ERK1/2); format: cell-based; conditions: Homo sapiens, read-out: SOS1 pERK IC50
Description: The purpose of this assay is to measure the ability of test compounds to inhibit SOS1 function in cells. SOS1 activates RAS proteins by catalyzing the conversion of RAS GDP to RAS GTP in response to receptor tyrosine kinase activation. […] The procedure described below measures the level of cellular pERK in response to test compounds in PC-9 cells (EGFR Ex19Del).
PC-9 cells were grown and maintained using media and procedures recommended by the ATCC. On the day prior to compound addition, cells were plated in 384-well cell culture plates (40 μL/well) and grown overnight in a 37° C., 5% CO2 incubator. Test compounds were prepared in 10, 3-fold dilutions in DMSO, with a top concentration of 10 mM. On the day of the assay, 40 nL of test compound was added to each well of cell culture plate using an Echo550 liquid handler (LabCyte). Concentrations of test compound were tested in duplicate with highest test concentration being 10 μM. After compound addition, cells were incubated for 1 hour at 37° C., 5% CO2. Following incubation, culture medium was removed and cells were washed once with phosphate buffered saline.
Cellular pERK level was determined using the AlphaLISA SureFire Ultra p-ERK1/2 Assay Kit (PerkinElmer). Cells were lysed in 25 μL lysis buffer, with shaking at 600 RPM at room temperature for 15 minutes. Lysate (10 μL) was transferred to a 384-well Opti-plate (PerkinElmer) and 5 μL acceptor mix was added. The plate was centrifuged at 1000 RPM for 1 minute, and incubated in the dark for 2 hours. Following this incubation, 5 μL of donor mix was added, the plate was sealed and centrifuged at 1000 RPM for 1 minute, and the mixture was incubated for 2 hours at room temperature. Signal was read on an Envision plate reader (PerkinElmer) using standard AlphaLISA settings. Analysis of raw data was carried out in Excel (Microsoft) and Prism (GraphPad). Signal was plotted vs. the decadal logarithm of compound concentration, and IC50 was determined by fitting a 4-parameter sigmoidal concentration response model.

[2] = target: T1, SOS1 catalytic domain (residues 564-1049) (Homo sapiens, UniProt Q07889); assay: Mode of Action Assay: inhibition of SOS1 nucleotide exchange activity (SOS1 TR-FRET IC50 Assay)
T1 sequence (Q07889 564-1049): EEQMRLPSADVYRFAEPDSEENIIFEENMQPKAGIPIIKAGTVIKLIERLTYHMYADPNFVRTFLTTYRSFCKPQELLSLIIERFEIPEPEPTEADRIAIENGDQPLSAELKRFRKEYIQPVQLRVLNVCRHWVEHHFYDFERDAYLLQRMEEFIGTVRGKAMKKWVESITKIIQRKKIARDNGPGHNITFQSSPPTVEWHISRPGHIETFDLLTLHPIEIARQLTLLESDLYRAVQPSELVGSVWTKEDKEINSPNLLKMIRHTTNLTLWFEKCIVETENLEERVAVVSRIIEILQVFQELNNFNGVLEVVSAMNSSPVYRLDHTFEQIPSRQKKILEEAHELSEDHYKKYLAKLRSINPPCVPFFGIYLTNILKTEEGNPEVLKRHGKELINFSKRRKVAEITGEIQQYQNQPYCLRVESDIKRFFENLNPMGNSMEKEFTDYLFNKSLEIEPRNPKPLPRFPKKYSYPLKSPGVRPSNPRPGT

[3] = PC-9 cells (EGFR Ex19Del), 1 hour incubation, AlphaLISA p-ERK1/2

Compound	pIC50 [1, 3]	pIC50 [2]	pIC50 ([1]; PC-9, 1 h)
C[C@@H](Nc1nc(Cl)nc2c1CN(C(=O)[C@@H]1COC[C@@H]1N)C2)c1cccc(C(F)F)c1F [Example 308]	< 6.00	> 6.00	–
C[C@@H](Nc1nc(Cl)nc2c1CN(C(=O)N1CCOCC1)C2)c1cccc(NC2CC2)c1 [Example 520, 2-chloro-N-[(1R)-1-[3-(cyclopropylamino)phenyl]ethyl]-6-(morpholine-4-carbonyl)-5H,6H,7H-pyrrolo[3,4-d]pyrimidin-4-amine]	–	< 6.00	< 6.00
C[C@@H](Nc1nc(Cl)nc2c1CN(C(=O)N1CCOCC1)C2)c1cccc(C(F)(F)COC2CC2)c1 [Example 531, [2-chloro-4-[[(1R)-1-[3-[2-(cyclopropoxy)-1,1-difluoro-ethyl]phenyl]ethyl]amino]-5,7-dihydropyrrolo[3,4-d]pyrimidin-6-yl]-morpholino-methanone]	–	> 6.00	> 6.00
C[C@@H](Nc1nc(Cl)nc2c1CN(C(=O)C13OCCCC1C3(F)F)CC2)c1cc(N)cc(C(F)(F)F)c1 (stereo partly drawn) [Example 214]	< 6.00	< 6.00	–
Cc1nc2c(c(N[C@H](C)c3cc(N)cc(C(F)(F)F)c3)n1)CN(CC1CCOC1)CC2 (stereo partly drawn) [Example 56, N-[(1R)-1-[3-amino-5-(trifluoromethyl)phenyl]ethyl]-2-methyl-6-(tetrahydrofuran-3-ylmethyl)-7,8-dihydro-5H-pyrido[4,3-d]pyrimidin-4-amine]	< 6.00	> 6.00	–
Cc1nc2c(c(N[C@H](C)c3cc(N)cc(C(F)(F)F)c3)n1)CN(C(=O)C1CCN(C)CC1)C2 [Example 109, [4-[[(1R)-1-[3-amino-5-(trifluoromethyl)phenyl]ethyl]amino]-2-methyl-5,7-dihydropyrrolo[3,4-d]pyrimidin-6-yl]-(1-methyl-4-piperidyl)methanone]	–	> 6.00	< 6.00
C[C@@H](Nc1nc(Cl)nc2c1CN(C(=O)N1CCc3ncccc31)C2)c1cccc(C(F)(F)F)c1 [Example 371]	> 6.00	> 6.00	–
C[C@@H](Nc1nc(Cl)nc2c1CN(C(=O)N1CCNC3CC31)C2)c1cccc(C(F)(F)F)c1 (stereo partly drawn) [Example 379]	> 6.00	> 6.00	–
CC(O)c1cccc(C(C)Nc2ncnc3c2CN(C(=O)N2CCOCC2)C3)c1 (stereo not drawn) [Example 516]	< 6.00	< 6.00	–
C[C@@H](Nc1nc(Cl)nc2c1CN(C(=O)N1CCOc3cccnc31)C2)c1cccc(C(F)(F)F)c1 [Example 368]	> 6.00	> 6.00	–
C[C@@H](Nc1nc(Cl)nc2c1CN(C(=O)C1CCCN1c1ncccn1)CC2)c1cc(N)cc(C(F)(F)F)c1 (stereo partly drawn) [Example 200]	< 6.00	< 6.00	–
C[C@@H](Nc1nc(Cl)nc2c1CN(C(=O)c1cccc(Cl)n1)CC2)c1cc(N)cc(C(F)(F)F)c1 [Example 252]	< 6.00	< 6.00	–
C[C@@H](Nc1nc(Cl)nc2c1CN(C(=O)[C@@]13CCC[C@@H]1OCC3)CC2)c1cc(N)cc(C(F)(F)F)c1 [Example 216]	< 6.00	< 6.00	–
CC(Nc1nc(Cl)nc2c1CN(C(=O)N1CCOCC1)C2)c1cc(C(F)(F)F)ccn1 (stereo not drawn) [Example 472, 2-chloro-6-(morpholine-4-carbonyl)-N-{1-[4-(trifluoromethyl)pyridin-2-yl]ethyl}-5H,6H,7H-pyrrolo[3,4-d]pyrimidin-4-amine]	< 6.00	< 6.00	–
CC(CO)c1cccc(C(C)Nc2nc(Cl)nc3c2CN(C(=O)N2CCOCC2)C3)c1 (stereo not drawn) [Example 500, 2-[3-(1-{[2-Chloro-6-(morpholine-4-carbonyl)-5H,6H,7H-pyrrolo[3,4-d]pyrimidin-4-yl]amino}ethyl)phenyl]propan-1-ol]	< 6.00	> 6.00	–
COC1(C(=O)N2CCc3nc(Cl)nc(N[C@H](C)c4cc(N)cc(C(F)(F)F)c4)c3C2)CCC1 [Example 203]	< 6.00	< 6.00	–
C[C@@H](Nc1nc(Cl)nc2c1CN(C(=O)C13CC(C)(C1)OC31COC1)CC2)c1cc(N)cc(C(F)(F)F)c1 [Example 210]	< 6.00	< 6.00	–
C[C@@H](Nc1ncnc2c1CC(N1CCOCC1)C(=O)N2C)c1cc(N)cc(C(F)(F)F)c1 (stereo partly drawn) [Example 502, 4-{[(1R)-1-[3-amino-5-(trifluoromethyl)phenyl]ethyl]amino}-8-methyl-6-(morpholin-4-yl)-5H,6H,7H,8H-pyrido[2,3-d]pyrimidin-7-one]	< 6.00	> 6.00	–
CC(Nc1nc(Cl)nc2c1CN(C(=O)N1CCOCC1)C2)c1cccc(C2(F)CNC2)c1 (stereo not drawn) [Example 517, [2-chloro-4-[1-[3-(3-fluoroazetidin-3-yl)phenyl]ethylamino]-5,7-dihydropyrrolo[3,4-d]pyrimidin-6-yl]-morpholino-methanone]	–	> 6.00	< 6.00

Continued, in another order:

pIC50 [1, 3]	pIC50 [2]	Compound	pIC50 ([1]; PC-9, 1 h)
< 6.00	> 6.00	CC(Nc1nc(Cl)nc2c1CN(C(=O)N1CCOCC1)C2)c1cccc2c1C[C@H](CO)C2 (stereo in doubt) [Example 464, (2-chloro-4-(((R)-1-((R)-2-(hydroxymethyl)-2,3-dihydro-1H-inden-4-yl)ethyl)amino)-5,7-dihydro-6H-pyrrolo[3,4-d]pyrimidin-6-yl)(morpholino)methanone]	–
< 6.00	< 6.00	CC(Nc1nc(Cl)nc2c1CN(C(=O)N1CCOCC1)C2)c1cccc2c1C[C@@H](CO)C2 (stereo in doubt) [Example 465, (2-chloro-4-(((R)-1-((S)-2-(hydroxymethyl)-2,3-dihydro-1H-inden-4-yl)ethyl)amino)-5,7-dihydro-6H-pyrrolo[3,4-d]pyrimidin-6-yl)(morpholino)methanone]	–
< 6.00	< 6.00	COC1(C(=O)N2CCc3nc(Cl)nc(N[C@H](C)c4cc(N)cc(C(F)(F)F)c4)c3C2)CCCOC1 (stereo partly drawn) [Example 224]	–
< 6.00	< 6.00	Cc1nc2c(c(N[C@H](C)c3cc(N)cc(C(F)(F)F)c3)n1)CCN(C(=O)N1CCOCC1)CC2 [Example 112, N-[(1R)-1-[3-amino-5-(trifluoromethyl)phenyl]ethyl]-2-methyl-7-(morpholine-4-carbonyl)-5H,6H,7H,8H,9H-pyrimido[4,5-d]-azepin-4-amine]	–
< 6.00	< 6.00	COCC1(C(=O)N2CCc3nc(Cl)nc(N[C@H](C)c4cc(N)cc(C(F)(F)F)c4)c3C2)CC1 [Example 213]	–
< 6.00	< 6.00	CC(C)OC1(C(=O)N2CCc3nc(Cl)nc(N[C@H](C)c4cc(N)cc(C(F)(F)F)c4)c3C2)CCOC1 (stereo partly drawn) [Example 195]	–
< 6.00	< 6.00	C[C@@H](Nc1nc(Cl)nc2c1CN(C(=O)N1CCOCC1)C2)c1ccc2cc[nH]c2c1 [Example 495]	–
> 6.00	> 6.00	COC1(C(=O)N2Cc3nc(Cl)nc(N[C@H](C)c4cccc(C(F)(F)CO)c4)c3C2)CN(C2COC2)C1 [Example 267]	–
< 6.00	< 6.00	CC(Nc1nc(Cl)nc2c1CN(C(=O)N1CCOCC1)C2)c1cccc(S(F)(F)(F)(F)F)c1 (stereo not drawn) [Example 462, [2-chloro-4-[1-[3-(pentafluoro-sulfanyl)phenyl]ethylamino]-5,7-dihydropyrrolo[3,4-d]pyrimidin-6-yl]-morpholino-methanone]	–
> 6.00	< 6.00	CC(Nc1nc(Cl)nc2c1CN(C(=O)N1CCOCC1)C2)c1cc(N)c(F)c(C(F)(F)F)c1 (stereo not drawn) [Example 533, [4-[1-[3-amino-4-fluoro-5-(trifluoromethyl)phenyl]ethylamino]-2-chloro-5,7-dihydropyrrolo[3,4-d]pyrimidin-6-yl]-morpholino-methanone]	–
> 6.00	> 6.00	Cc1nc2c(c(N[C@H](C)c3cc(N)cc(C(F)(F)F)c3)n1)CN(S(=O)(=O)N1CCN(C)CC1)C2 [Example 38, (R)—N-(1-(3-amino-5-(trifluoromethyl)phenyl)ethyl)-2-methyl-6-((4-methylpiperazin-1-yl)sulfonyl)-6,7-dihydro-5H-pyrrolo[3,4-d]pyrimidin-4-amine]	–
